Patent US11331326B2, “Composition for prevention or treatment of inflammatory skin diseases or severe pruritus comprising the aqueous solubilized ursodeoxycholic acid” (AMICOGEN PHARMA INC., priority 2016, dated 2022)
In brackets after ≈: the same amount, converted by molar mass.

Tests used:
[1] = protonated form (pH 1 to 8); cited from earlier work
[2] = Solubility of ursodeoxycholic acid in water; format: physicochemical; conditions: pH 1 to 8
[3] = crystalline type of ursodeoxycholic acid; cited from earlier work
[4] = oral administration, crystalline form of UDCA; cited from earlier work

| Structure (SMILES) | solubility [1] | solubility relative to the commercialized UDCA [2] | acid dissociation constant, pKa [3] | fraction absorbed at the ileum of the colon by the active transport mechanism [4] |
| --- | --- | --- | --- | --- |
| C[C@H](CCC(=O)NCCS(=O)(=O)O)[C@H]1CC[C@H]2[C@@H]3[C@@H](O)C[C@@H]4C[C@H](O)CC[C@]4(C)[C@H]3CC[C@]12C [TUDCA, tauroursodeoxycholic acid] | 450 µM (≈ 225 µg/mL) | about 10 times | – | – |
| C[C@H](CCC(=O)O)[C@H]1CC[C@H]2[C@@H]3[C@@H](O)C[C@@H]4C[C@H](O)CC[C@]4(C)[C@H]3CC[C@]12C [UDCA, ursodeoxycholic acid] | about 0.05 mM | – | about 5.0 | up to 20 % of intakes |
